Tests used:
A673 cells = assay: Cell viability and proliferation, A673 cells (crystal violet); assay type: cell-based; conditions: cell proliferation IC50 in NHDF cells over A673 cells, 72 h
Protocol: Small molecule splicing modulators were tested in a dose-response assay using A673 cells and NHDF cells.
A673 cells or NHDF cells were first plated in 96-well plastic tissue culture plates (10,000 cells per well). The cells were treated with vehicle alone (DMSO), or increasing concentrations of SMSM compounds for 72 h. Following treatment, cell proliferation was determined using a crystal violet assay. The relative cell proliferation at each concentration was determined.

[1] = Maximum tolerable dose study (survival, body weight); assay type: in vivo; conditions: mice
Protocol: Survival of mice after administration of SMSMs after 10 or 11 days was assessed.
Tolerance of the drug treatments was determined by measuring the weight of the mice during the period of drug administration. Body weight was measured prior to tumor inoculation and prior to the treatment administration and then daily. The changes in the final weight of the mice for the SMSM treatments were determined.

A673 xenografts = A673 xenografts in nude mice, tumor growth inhibition; assay type: in vivo; conditions: A673 xenograft (FIGS. 20A-B)
Protocol: Dose range and time course studies comparing anti-neoplastic effects of SMSM−167 and SMSM−151 against vehicle were conducted.
Female NCrNu mice were used. Age range of enrolment was 7-10 weeks. A total of 75 animals were for the studies.
The A673 tumor cell line was maintained in vitro as a monolayer culture. […] The cells growing in an exponential growth phase were harvested and counted for tumor inoculation.
Each mouse were inoculated into a right flank with the single cell suspension of 95% viable tumor cells (5×10^6 cells/mouse) in serum-free RPMI 1640 Media for tumor development. Treatments were administered when mean tumor size reached approximately 75 mm^3.
Before commencement of treatment, all animals were weighed and assigned to treatment groups using a randomization procedure. Mice were randomized into groups based upon their tumor sizes to ensure that each group had approximately the same mean tumor size and range of tumor size.
After inoculation, the animals were checked daily for morbidity and mortality. At the time of routine monitoring, the animals were checked for any effects of tumor growth on normal behavior such as mobility, food and water consumption, body weight gain/loss, eye/hair matting and any other abnormal effects. Deaths and observed clinical signs were recorded.
Body weight were measured prior to tumor inoculation and prior to the treatment administration and then daily. Tumor size were measured 2-3 times per week in two dimensions using a caliper, and the volume were expressed in mm^3 using the formula: V=0.5×a×b^2 where a and b are the long and short diameters of the tumor, respectively.
(§1) Studies were terminated when the tumor size in the vehicle treated group reached 2,000 mm^3. Each mouse was bled at 2 hrs after the last dose and at least 50 μl of plasma were collected from each mouse. All of the collected plasma samples and retainer dosing solutions for each dose level were used for bioanalytical measurements. All tumors were also collected and weighed. One necrosis-free tumor fragment of approximately 50 mg was taken from each tumor and flash-frozen for RNA isolation. The remaining tumor was flash frozen for PK analysis.
(§2) Studies were performed to assess the effects of in vivo SMSM treatment on glioblastoma, breast, pancreatic, prostate, melanoma, lymphoma and Ewing sarcoma tumors. Studies were also performed to assess the effects of in vivo SMSM treatment on mRNA levels. Immunocompromised nude mice with pre-existing glioblastoma, breast, pancreatic, prostate, melanoma, lymphoma and Ewing sarcoma xenografts were treated with vehicle or SMSMs. Tumor tissues from subcutaneous xenografts were broken into a powder using a BioPulverizer (Biospec Products, Inc.). After SMSM treatment, mRNA was isolated from the xenografts and was analyzed by qRT-PCR.
as §1, with “Tumor size was measured 2 times per week in two dimensions using a caliper. Studies” for “Studies”, “plasma was” for “plasma were”
The effects of in vivo SMSM treatments on pre-existing subcutaneous glioblastoma, breast, pancreatic, prostate, melanoma, lymphoma and Ewing sarcoma xenografts were assessed. For these in vivo experiments, 1×10^6Raji, A375, A673, MDA-MB-231, BxPC-3, PC-3 or U87 (cells re-suspended in 100 μl PBS were subcutaneously injected into the flanks of nude mice. When the tumor reached approximately 100 mm^3 (volume=(¾)(π)(length/2)(width/2)^2), the treatments indicated in the tables below were initiated. […]

A375 xenografts = A375 xenografts in nude mice, tumor growth inhibition; assay type: in vivo; conditions: A-375 xenograft (FIGS. 21A-B)
Protocol: as §2
as §1, with “Tumor size was measured 2 times per week in two dimensions using a caliper. Studies” for “Studies”, “plasma was” for “plasma were”
The effects of in vivo SMSM treatments on pre-existing subcutaneous glioblastoma, breast, pancreatic, prostate, melanoma, lymphoma and Ewing sarcoma xenografts were assessed. For these in vivo experiments, 1×10^6Raji, A375, A673, MDA-MB-231, BxPC-3, PC-3 or U87 (cells re-suspended in 100 μl PBS were subcutaneously injected into the flanks of nude mice. When the tumor reached approximately 100 mm^3 (volume=(¾)(π)(length/2)(width/2)^2), the treatments indicated in the tables below were initiated.

CN(c1ccc(-c2ccc(-c3cn[nH]c3)cc2O)nn1)[C@H]1C[C@]2(C)CC[C@](C)(C1)N2 [compound 151, 2-(6-(((1R,3s,5S)-1,5-dimethyl-8-azabicyclo[3.2.1]octan-3-yl)(methyl)ami-no)pyridazin-3-yl)-5-(1H-pyrazol-4-yl)phenol]
Ratio NHDF/A673 IC50 (A673 cells): >350 | Outcome ([1]; IP, 1 mg/kg, QDx11): All survived | Outcome ([1]; PO, 10 mg/kg, BIDx11): All survived | Outcome ([1]; PO, 10 mg/kg, QDx11): All survived | Tumor Growth Inhibition (TGI) (%) (A673 xenografts; 10 mg/kg BID p.o., Day 3): 28.03% | Tumor Growth Inhibition (TGI) (%) (A673 xenografts; 10 mg/kg BID p.o., Day 6): 34.29% | Tumor Growth Inhibition (TGI) (%) (A673 xenografts; 10 mg/kg BID p.o., Day 10): 22.09% | Tumor Growth Inhibition (TGI) (%) (A673 xenografts; 10 mg/kg BID p.o., Day 13): 30.12% | Tumor Growth Inhibition (TGI) (%) (A673 xenografts; 20 mg/kg BID p.o., Day 3): 37.61% | Tumor Growth Inhibition (TGI) (%) (A673 xenografts; 20 mg/kg BID p.o., Day 6): 45.97% | Tumor Growth Inhibition (TGI) (%) (A673 xenografts; 20 mg/kg BID p.o., Day 10): 55.24% | Tumor Growth Inhibition (TGI) (%) (A673 xenografts; 20 mg/kg BID p.o., Day 13): 71.29% | Tumor Growth Inhibition (TGI) (%) (A673 xenografts; 30 mg/kg QD p.o., Day 3): 23.90% | Tumor Growth Inhibition (TGI) (%) (A673 xenografts; 30 mg/kg QD p.o., Day 6): 34.28% | Tumor Growth Inhibition (TGI) (%) (A673 xenografts; 30 mg/kg QD p.o., Day 10): 17.11% | Tumor Growth Inhibition (TGI) (%) (A673 xenografts; 30 mg/kg QD p.o., Day 13): 23.52% | Tumor Growth Inhibition (TGI) (%) (A375 xenografts; 3 mg/kg i.p. QD *21 days, D4): 15.21% | Tumor Growth Inhibition (TGI) (%) (A375 xenografts; 3 mg/kg i.p. QD *21 days, D7): 18.86% | Tumor Growth Inhibition (TGI) (%) (A375 xenografts; 3 mg/kg i.p. QD *21 days, D11): 27.48% | Tumor Growth Inhibition (TGI) (%) (A375 xenografts; 3 mg/kg i.p. QD *21 days, D14): 41.30% | Tumor Growth Inhibition (TGI) (%) (A375 xenografts; 3 mg/kg i.p. QD *21 days, D18): 62.06% | Tumor Growth Inhibition (TGI) (%) (A375 xenografts; 3 mg/kg i.p. QD *21 days, D21): 55.77% | Tumor Growth Inhibition (TGI) (%) (A375 xenografts; 10 mg/kg p.o. BID *21 days, D4): 22.49% | Tumor Growth Inhibition (TGI) (%) (A375 xenografts; 10 mg/kg p.o. BID *21 days, D7): 28.98% | Tumor Growth Inhibition (TGI) (%) (A375 xenografts; 10 mg/kg p.o. BID *21 days, D11): 48.28% | Tumor Growth Inhibition (TGI) (%) (A375 xenografts; 10 mg/kg p.o. BID *21 days, D14): 49.06% | Tumor Growth Inhibition (TGI) (%) (A375 xenografts; 10 mg/kg p.o. BID *21 days, D18): 58.41% | Tumor Growth Inhibition (TGI) (%) (A375 xenografts; 10 mg/kg p.o. BID *21 days, D21): 50.32% | Tumor Growth Inhibition (TGI) (%) (A375 xenografts; SMSM-151 group 1.5 mg/kg i.p. BID *21 days, D4): 21.81% | Tumor Growth Inhibition (TGI) (%) (A375 xenografts; SMSM-151 group 1.5 mg/kg i.p. BID *21 days, D7): 13.08% | Tumor Growth Inhibition (TGI) (%) (A375 xenografts; SMSM-151 group 1.5 mg/kg i.p. BID *21 days, D11): 24.17% | Tumor Growth Inhibition (TGI) (%) (A375 xenografts; SMSM-151 group 1.5 mg/kg i.p. BID *21 days, D14): 34.70% | Tumor Growth Inhibition (TGI) (%) (A375 xenografts; SMSM-151 group 1.5 mg/kg i.p. BID *21 days, D18): 39.27% | Tumor Growth Inhibition (TGI) (%) (A375 xenografts; SMSM-151 group 1.5 mg/kg i.p. BID *21 days, D21): 36.89%

— patent US11326165B1, “Methods and compositions for modulating splicing” (SKYHAWK THERAPEUTICS, INC., priority 2017, dated 2022)
